Test systems include HCC-2998 colon; A549 NSCLC; COLO 205 colon; T-47D breast; MDA-MB-231 breast; NCI/ADR-RES ovarian; SN12C renal; K-562 leukemia; HOP-92 NSCLC; U251 CNS.
Test in all cases: NCI-60 cell line screen, 48 h

“And” between values parts separate entries of the source, which are not always exact repeats. Equal values may be shown once.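 The compound was tested at five concentrations on cells cultured in 96-well plates, with a 48-hour exposure period. Abbreviation: GI50, concentration required for 50% inhibition of growth. TGI denotes the concentration required for complete inhibition of growth.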

We go through 11 compounds from PubChem BioAssay (NCI).

Consider `Nc1nc(-c2cccc(Cl)c2)c(-c2ccc3ncccc3n2)s1`, for which the GI50 with HCC-2998 colon was more than 25 µM; in the experiment with A549 NSCLC, more than 25 µM; with COLO 205 colon, more than 25 µM; in the experiment on T-47D breast, 5.88 µM; with MDA-MB-231 breast it was more than 25 µM; in the experiment with NCI/ADR-RES ovarian it was more than 25 µM. Also, the GI50 with SN12C renal is more than 25 µM; in the experiment on K-562 leukemia, more than 25 µM; with HOP-92 NSCLC, more than 24 µM; in the experiment on U251 CNS, more than 25 µM. The TGI in the experiment with HCC-2998 colon, with A549 NSCLC, with COLO 205 colon, in the experiment on T-47D breast, with MDA-MB-231 breast and with NCI/ADR-RES ovarian was more than 25 µM throughout. Moreover, the TGI in the experiment on SN12C renal, with K-562 leukemia, in the experiment on HOP-92 NSCLC and in the experiment on U251 CNS was more than 25 µM in each case.

Consider `O=C1/C(=C/c2ccc(O)cc2)CSc2ccc(Cl)cc21`, for which the GI50 in the experiment with HCC-2998 colon was 13.6 µM; with A549 NSCLC, 32 µM; in the experiment on COLO 205 colon, 15.6 µM; in the experiment on T-47D breast it was 8.86 µM; with MDA-MB-231 breast it was 17.8 µM; with NCI/ADR-RES ovarian, 18.7 µM. Besides, the GI50 in the experiment with SN12C renal is 14 µM; with K-562 leukemia, 2.36 µM; with HOP-92 NSCLC, 21.7 µM; with U251 CNS, 4.21 µM. Besides, the TGI with HCC-2998 colon was 30.1 µM; in the experiment on A549 NSCLC, more than 100 µM; with COLO 205 colon, 29 µM; with T-47D breast, 22.7 µM; in the experiment with MDA-MB-231 breast, 44.3 µM; in the experiment on NCI/ADR-RES ovarian, more than 100 µM. Also, the TGI in the experiment on SN12C renal was 46.9 µM; in the experiment on K-562 leukemia, more than 100 µM; with HOP-92 NSCLC it was more than 100 µM; with U251 CNS, 15.8 µM.

Turning to `CC1(C)N=C(N)N=C(N)N1c1ccc(OCc2ccc(S(=O)(=O)F)c(Cl)c2)c(Cl)c1`, the GI50 with HCC-2998 colon is 4.97 µM; with A549 NSCLC, 0.499 µM; in the experiment on COLO 205 colon, 5.74 µM; with T-47D breast, 77.7 µM; with MDA-MB-231 breast, more than 100 µM; in the experiment on NCI/ADR-RES ovarian, 60 µM. Moreover, the figures for the GI50 in the experiment on SN12C renal, in the experiment with K-562 leukemia and with U251 CNS were 0.558 µM, 0.448 µM and 2.9 µM, respectively. For the same compound, the TGI in the experiment on HCC-2998 colon, in the experiment on A549 NSCLC, with COLO 205 colon, with T-47D breast, in the experiment with MDA-MB-231 breast and with NCI/ADR-RES ovarian was more than 100 µM each time. Moreover, the TGI in the experiment with SN12C renal, in the experiment with K-562 leukemia and in the experiment with U251 CNS was more than 100 µM throughout.

On to `COc1cc2c(c(OC)c1OC)-c1c(cc3c(c1OC)OCO3)C1OC2C(C)C1C` (stereo not drawn) (tested in a mixture with another compound), for which the TGI is more than 100 µM with HCC-2998 colon; more than 100 µM in the experiment on A549 NSCLC; more than 100 µM in the experiment on COLO 205 colon; 80.2 µM in the experiment with T-47D breast; more than 100 µM in the experiment with MDA-MB-231 breast; more than 100 µM in the experiment on SN12C renal. Moreover, the TGI in the experiment on K-562 leukemia, in the experiment on HOP-92 NSCLC and with U251 CNS was more than 100 µM in each case.

`CC(C)CCCC(=O)CCCCCCC(=O)CCN(O)C(=O)C(N)CO` (stereo not drawn): the TGI in the experiment with COLO 205 colon is 53.5 µM; in the experiment on T-47D breast it was 34.8 µM; in the experiment on MDA-MB-231 breast, 34.7 µM; in the experiment with NCI/ADR-RES ovarian, 38.4 µM; with SN12C renal, 43 µM; in the experiment with K-562 leukemia it was more than 100 µM. The TGI with U251 CNS amounted to 65 µM.

Take `CCCCN1CSC(=S)N(Cc2ccccc2)C1`: the TGI was more than 100 µM in the experiment with A549 NSCLC; 50.6 µM in the experiment with COLO 205 colon; more than 100 µM in the experiment with T-47D breast; more than 100 µM in the experiment on MDA-MB-231 breast; more than 100 µM in the experiment on NCI/ADR-RES ovarian; more than 100 µM in the experiment with SN12C renal. Moreover, the TGI in the experiment with K-562 leukemia, in the experiment on HOP-92 NSCLC and with U251 CNS was more than 100 µM throughout.

For `COc1ccc2nc3cc(Cl)ccc3c(NCCN)c2c1`, the GI50 with COLO 205 colon is 1.53 µM; in the experiment on T-47D breast it was 1.83 µM; in the experiment on HOP-92 NSCLC, 1.47 µM; in the experiment with U251 CNS, 1.71 µM. For the same compound, the TGI stood at 3.14 µM in the experiment with COLO 205 colon, 3.59 µM in the experiment on T-47D breast, 2.95 µM in the experiment with HOP-92 NSCLC and 3.09 µM in the experiment on U251 CNS.

On to `CC(C)(C)c1ccc(O)c(CN(Cc2cc(C(C)(C)C)ccc2O)c2ccccc2)c1`, for which the TGI with A549 NSCLC worked out at 35.9 µM; in the experiment with COLO 205 colon it was 30.9 µM; in the experiment on T-47D breast, 42.8 µM; in the experiment with MDA-MB-231 breast, 31.7 µM; in the experiment with NCI/ADR-RES ovarian, 37.6 µM; in the experiment with SN12C renal it was 32.1 µM. Besides, the TGI in the experiment with K-562 leukemia turned out to be 31.9 µM; with HOP-92 NSCLC, 30.7 µM; in the experiment on U251 CNS it was 28.4 µM.

As for `C/C=C(\C)CC/C=C/CO[Si](C)(C)C(C)(C)C`, the TGI in the experiment with HCC-2998 colon, in the experiment with A549 NSCLC, with COLO 205 colon, with T-47D breast, in the experiment on MDA-MB-231 breast and with NCI/ADR-RES ovarian was more than 100 µM each time. The TGI in the experiment on SN12C renal and with K-562 leukemia was more than 100 µM throughout.

As for `NCCCn1c2c(c3ccc([N+](=O)[O-])cc3c1=O)C(=O)c1cc(Br)ccc1-2`, the GI50 with HCC-2998 colon was 0.154 µM; in the experiment with A549 NSCLC it was 0.0897 µM; in the experiment on COLO 205 colon, 0.0946 µM and 0.79 µM; in the experiment on T-47D breast, 0.346 µM and 0.169 µM; with MDA-MB-231 breast, 0.0364 µM and 0.0168 µM; with NCI/ADR-RES ovarian, 0.0352 µM. For the same compound, the GI50 in the experiment on SN12C renal is 0.0154 µM; in the experiment on K-562 leukemia it was 0.00813 µM; with U251 CNS, 0.0202 µM. Also, the TGI in the experiment with A549 NSCLC is 0.245 µM; with COLO 205 colon it was 2.34 µM; with T-47D breast, 1.49 µM; in the experiment with MDA-MB-231 breast it was 0.218 µM and 0.103 µM; with NCI/ADR-RES ovarian it was 0.203 µM and 0.206 µM; in the experiment on SN12C renal it was 0.0566 µM. Also, the TGI in the experiment on K-562 leukemia was 0.264 µM; in the experiment with U251 CNS, 0.111 µM and 0.014 µM.

`COc1cc2c3c(n(CCCCOC(=O)C(Cl)(Cl)Cl)c(=O)c2cc1OC)-c1cc2c(cc1C3=O)OCO2`: the GI50 is more than 100 µM in the experiment on A549 NSCLC; more than 100 µM in the experiment on COLO 205 colon; more than 100 µM with T-47D breast; 50.3 µM in the experiment with MDA-MB-231 breast; 82.7 µM with NCI/ADR-RES ovarian; 43.7 µM in the experiment with SN12C renal. The GI50 was more than 100 µM with K-562 leukemia, more than 100 µM in the experiment on HOP-92 NSCLC and 21.5 µM with U251 CNS. The TGI with A549 NSCLC, in the experiment on COLO 205 colon, in the experiment with T-47D breast, with MDA-MB-231 breast, in the experiment with NCI/ADR-RES ovarian and with SN12C renal was more than 100 µM in each case. Moreover, the TGI in the experiment on K-562 leukemia, in the experiment on HOP-92 NSCLC and in the experiment with U251 CNS was more than 100 µM each time.
